PMC4906375, “Contribution of Amphipathicity and Hydrophobicity to the Antimicrobial Activity and Cytotoxicity of β-Hairpin Peptides” (ACS Infectious Diseases, 2016)
≈ marks a conversion by molar mass, not a printed value. Like-named read-outs stand apart in the source and are kept apart here.

Experiments:
[1] = tested on: human erythrocytes; details: red cells of human, 3 h
[2] = tested on: E. coli ATCC 25922 cytoplasmic membrane; experiment: Inner membrane permeability measured by SYTOX green fluorescence emission; details: SYTOX green, E. coli ATCC 25922, 1 h
[3] = hemolysis (%) at 300 μg/mL, human erythrocytes, 3 h, relative to 100% hemolysis by 1% Triton X-100
[4] = tested on: E. coli ATCC 25922 cytoplasmic membrane; details: not told
[5] = Plasma protein binding, ultrafiltration; format: in vitro ADME; details: 100% human plasma, read-out: PPB (%) (converted)
Procedure: Plasma protein binding was performed using an ultrafiltration method.[58]
Plasma protein binding assay
Plasma protein binding was performed using an Ultrafiltration method.13 Fresh frozen human plasma was pooled from O Negative (Product number 1274512) blood from the R & D division of the Australian Red Cross Blood Services (Brisbane). Stock solutions (20 mg/mL) of the test compounds were prepared in H2O. Test compounds (40 µg/mL) were incubated in 100 % human plasma at 37 °C for 30 min (1 mL volume). For unfiltered samples, an aliquot (50 µL) was removed, diluted with PBS (50 µL) and quenched with icePcold precipitating solution comprising 0.5 µM carbutamide MS internal standard in acetonitrile : methanol : formic acid (1: 1 : 0.001). Samples were incubated at 4 °C for 30 min then centrifuged at 14000 × g for 8 min, with the clear supernatant transferred to a vial for LC/MS/MS analysis.
For filtered samples, the plasma sample (250 µL) was filtered using Amicon UltraP0.5 Centrifugal Filter Devices 30K NMWL at 14000 × g for 7 min and then an aliquot (50 µL) was processed as described for unfiltered samples. The fraction of unbound compound was calculated by determining the concentration of the filtered sample and the concentration of unfiltered sample. All samples were performed in triplicate with sulfamethoxazole as a […]

[6] = tested on: B. subtilis ATCC 6051; experiment: microbe, parasite or virus in culture; format: cell-based, Bacillus subtilis; details: ATCC 6051
Procedure: (§1) Both antibacterial and antifungal MIC assays were performed by a broth microdilution plate based method as per CLSI guidelines for antimicrobial susceptibility testing.[53],[54] […] Full assay details are included in the Supporting Information with a full list of strains tested in Table S1.
(§2) Antibacterial assay (Minimum Inhibitory Concentration [MIC]).
(§3) MIC assay was performed by a broth microdilution plate based method as per CLSI guidelines for antimicrobial susceptibility testing of aerobic bacteria.1 Compounds were prepared at 1.28 mg/mL solution in water. The tested strains, Table S1, were cultured in Luria broth (LB) (In Vitro Technologies, USB75852), at 37 °C overnight. A sample of culture was then diluted 40Pfold in fresh Muller Hinton broth (MHB) (Bacto laboratories, 211443) and incubated at 37 °C for 1.5P2 h. The compounds were serially diluted twoPfold across the wells, with compound concentrations ranging from 0.015 µg/mL to 512 µg/mL, plated in duplicate. The resultant midPlog phase cultures were diluted to the final concentration of 1×10^6 CFU/mL, then 50 µL was added to each well of the compoundP containing 96Pwell plates (Corning 3641, NonPbinding Surface [NBS]), giving a final compound concentration range of 0.008 µg/mL to 256 µg/mL and 5x10^5 CFU/mL. All the plates were covered and incubated at 37 °C for 18 h. MICs were determined visually, being defined as the lowest concentration showing no visible growth. Resazurin was added at 0.001% final concentration to each well and incubated for 2 h before MICs were rePread for confirmation using the colour change from blue to pink to indicate wells containing viable cells. The resazurin assay was added in some wells where some form of precipitate was present in otherwise clear wells, making it difficult to ascertain which wells had visible […]
(§4) Antifungal assay (Minimum Inhibitory Concentration [MIC]). MIC assay was performed by a broth microdilution plate based method as per CLSI guidelines for antimicrobial susceptibility testing.2 Fungi strains, Table S1, were cultured for 3 days on Yeast ExtractPPeptone Dextrose (YPD) (SigmaPAldrich, Y1500) agar at 30 °C. A yeast suspension of 1x10^6 to 5x10^6 CFU/mL was prepared from five colonies. These stock suspensions were diluted with Yeast Nitrogen Base (YNB) (Becton Dickinson, 233520) broth to a final concentration of 2.5 ×10^3 CFU/mL. All samples, compounds and standards were plated in 96Pwell plates (Corning 3641, NonPbinding Surface [NBS]), by adding 10 µL of 1.28 mg/mL stock solution to each well and 90 µL of media. Then, the samples were serial diluted (1:2) in 12 concentrations across the plate. The standard antifungal ranged from 256

[7] = tested on: E. coli ATCC 25922 (control strain); format: cell-based, Escherichia coli; details: ATCC 25922
Procedure: as §1, §2, §3, §4

[8] = tested on: E. coli ATCC 700926 (K12); format: cell-based, Escherichia coli; details: ATCC 700926
Procedure: as §1, §2, §3, §4

[9] = tested on: K. pneumoniae ATCC 13883; format: cell-based, Klebsiella pneumoniae; details: ATCC 13883
Procedure: as §1, §2, §3, §4

[10] = tested on: A. baumannii ATCC 19606; format: cell-based, Acinetobacter baumannii; details: ATCC 19606
Procedure: as §1, §2, §3, §4

[11] = Cytotoxicity, Alamar Blue (resazurin) assay; format: cell-based, human; details: human
Procedure: Cytotoxicity to HEK293 and HepG2 cells was determined using the Alamar Blue (resazurin) assay,[55],[56] with 24 h of incubation and either 1 or 10% serum concentration. Full assay details are included in the Supporting Information.
Cytotoxicity. Cytotoxicity to HEK293 and HepG2 cells was determined using the Alamar Blue (resazurin) assay,3, 4 For the assays supplemented with 1 % FBS as final concentration the cells were seeded one day prior to the assay (3,000 per 20 µL for HEK293 and 4,000 per 20 µL for HepG2) with DMEM + 2 % FBS. The compounds were prepared as described below, using DMEM with no FBS instead to give the final FBS concentration of 1 %.
The highest concentration the compounds were tested was 300 µg/mL. A dilution series of 1:3 fold steps in DMEM (GIBCOPInvitrogen, cat. no. 11995P073) + 10 % FBS was created (concentration range of 600 µg/mL – 0.28 µg/mL), and 20 µL of these 2x concentrated compound dilutions were added in duplicates to wells of a black wall, clear bottom 384Pwells cell culture plate. For the assays with 1 % FBS the compounds in 0 % FBS were added to the existing cell plates in 2 % FBS. 200 µM Tamoxifen (Sigma T5648) served as negative control and in addition a serial dilution of tamoxifen, starting at 200 µM (74 µg/mL), was included as a dose response control (1 in 2 dilution series for tamoxifen). For the assay with 10 % FBS, HepG2 cells were seeded at 5000 cells per well, in a volume of 20 µL in DMEM medium + 10 % of FBS and added to the 20 µL of compound solution (total volume of 40 µL), resulting in a final compound concentration range of 300 µg/mL to 0.14 µg/mL.
Cells were incubated together with the compounds for 20 h at 37 °C, 5 % CO2.
After the incubation, 5 µL of 100 µM (25 µg/mL) resazurin dissolved in PBS (final concentration was approximately 11 µM) was added to each well. The plates were then incubated for 3 h at 37 °C, 5 % CO2. The fluorescence intensity was read using the TECAN Infinite M1000 PRO with excitation/emission 560/590. The data was analysed by Graph Pad Prism software. Results are presented as the average percentage of control ± SD for each set of duplicate wells using the following equation: Cell survival % = (FISAMPLE – FINegative/FIUNTREATED –FINegative)*100. (100 µg/mL tamoxifen was set as 0 % survival, media

[12] = tested on: P. aeruginosa ATCC 27853; format: cell-based, Pseudomonas aeruginosa; details: ATCC 27853
Procedure: as §1, §2, §3, §4

## CC(C)C[C@H](NC(=O)[C@H](CCCNC(=N)N)NC(=O)CNC(=O)CNC(=O)[C@@H](N)CCCNC(=N)N)C(=O)N[C@H]1CSSC[C@@H](C(=O)N[C@H](C(=O)NCC(=O)N[C@@H](CCCNC(=N)N)C(N)=O)C(C)C)NC(=O)[C@H](C(C)C)NC(=O)[C@@H]2CSSC[C@H](NC(=O)[C@H](Cc3ccc(O)cc3)NC1=O)C(=O)N[C@@H](CCCNC(=N)N)C(=O)N[C@@H](CCCNC(=N)N)C(=O)N[C@@H](CCCNC(=N)N)C(=O)N[C@@H](Cc1ccccc1)C(=O)N2 [protegrin-1]
[1]
  hemolysis (%) at 300 μg/mL: 64.8 ± 3.5%
[2]
  permeabilisation of the E. coli cytoplasmic membrane at lethal concentrations: permeabilise
[3]
  hemolysis: 65%
[4]
  permeabilization concentration relative to MIC: lower concentration than their MIC
[5]
  fraction unbound: 0.11
[6]
  MIC: 0.03 µg/mL (≈ 0.0139 µM)
[7]
  MIC: 2 µg/mL (≈ 0.928 µM)
[8]
  MIC: 0.25 µg/mL (≈ 0.116 µM)
[9]
  MIC: 0.5 µg/mL (≈ 0.232 µM)
[10]
  MIC: 0.25 µg/mL (≈ 0.116 µM)
[11]; HEK293 cells, HEK293, 1% FBS, read-out: cytotoxicity HEK293 1% FBS
  CC50 at 24 h: 19.6 ± 1.2 µg/mL (≈ 9.09 µM)
[11]; HEK293 cells, HEK293, 10% FBS, read-out: cytotoxicity HEK293 10% FBS
  CC50 at 24 h: 93.9 ± 1.1 µg/mL (≈ 43.6 µM)
[11]; HepG2 cells, HepG2, 1% FBS, read-out: cytotoxicity HepG2 1% FBS
  CC50 at 24 h: 31.4 ± 2 µg/mL (≈ 14.6 µM)
[11]; HepG2 cells, HepG2, 10% FBS, read-out: cytotoxicity HepG2 10% FBS
  CC50 at 24 h: 96.1 ± 1.1 µg/mL (≈ 44.6 µM)
[12]
  MIC: 4 µg/mL (≈ 1.86 µM)
